16 compounds from patent publication EP2768830B1, “APOPTOSIS-INDUCING AGENTS FOR THE TREATMENT OF CANCER AND IMMUNE AND AUTOIMMUNE DISEASES” (AbbVie Inc., priority 2011, dated 2013) can be followed below.

Where two headings read alike, the source gives them in different places.

For assay [1], the system named is mouse FL5.12 cells transfected with Bcl-XL. The experiment in a line: FL5.12 cellular assay (cell viability, CellTiter-Glo).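 Note: each EC50 determination derived from duplicate measurements.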 The format is cell-based.
Assay [2] has as its target GST-Bcl-xL (Homo sapiens, UniProt Q07817). The following applies: read-out: TR-FRET binding Bcl-xL Ki.
The mark [3] stands for this setting: Mus musculus, FL5.12 cells transfected with Bcl-XL, IL-3-depleted, 3% FBS assay media, 24 hours, CellTiter-Glo, read-out: FL5.12 Bcl-xL, - IL3, EC 50.
Setting [4] is: FL5.12 cells transfected with Bcl-XL, IL-3-depleted, 3% FBS assay media, 24 hours, CellTiter-Glo, read-out: FL5.12 Bcl-xL, - IL3, EC 50.

Chain of GST-Bcl-xL (Q07817 whole entry): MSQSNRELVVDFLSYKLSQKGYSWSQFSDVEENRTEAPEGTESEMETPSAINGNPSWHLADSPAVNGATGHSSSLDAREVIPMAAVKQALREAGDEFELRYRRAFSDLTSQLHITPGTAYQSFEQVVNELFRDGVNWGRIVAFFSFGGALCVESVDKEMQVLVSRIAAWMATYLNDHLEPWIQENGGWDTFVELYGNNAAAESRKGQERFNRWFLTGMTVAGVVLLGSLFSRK

Broadly, the Ki is a dissociation constant, usually derived from enzyme kinetics or from competition with a known ligand. Regarding `CCc1c(-c2ccc(N3CCc4cccc(C(=O)Nc5nc6ccccc6s5)c4C3)nc2C(=O)O)cnn1CC1CCCCC1` [Example 84, 6-[8-(1,3-benzothiazol-2-ylcarbamoyl)-3,4-dihydroisoquinolin-2(1H)-yl]-3-[1-(cyclohexylmethyl)-5-ethyl-1H-pyrazol-4-yl]pyridine-2-carboxylic acid], the EC50 in assay [1] (setting [3]) is 12 nM. In assay [2], the inhibitory constant (Ki) worked out at 0.0007 µM.

`O=C(Nc1nc2ccccc2s1)c1cccc2c1CN(c1ccc(-c3cccc(OC4CCCCC4)c3C(F)(F)F)c(C(=O)O)n1)CC2` [Example 120, 6-[8-(1,3-benzothiazol-2-ylcarbamoyl)-3,4-dihydroisoquinolin-2(1H)-yl]-3-[3-(cyclohexyloxy)-2-(trifluoromethyl)phenyl]pyridine-2-carboxylic acid]: the EC50 in assay [1] (setting [3]) came out at 859 nM. The Ki in assay [2] was 0.0004 µM.

For `Cc1c(-c2ccc(N3CCc4cccc(C(=O)Nc5nc6ccccc6s5)c4C3C)nc2C(=O)O)cnn1CC1(C)CCCCC1` (centres unmarked) [Example 163, 6-[8-(1,3-benzothiazol-2-ylcarbamoyl)-1-methyl-3,4-dihydroisoquinolin-2(1H)-yl]-3-{5-methyl-1-[(1-methylcyclohexyl)methyl]-1H-pyrazol-4-yl}pyridine-2-carboxylic acid], the EC50 in assay [1] (setting [3]) was found to be 211 nM. Besides, the Ki in assay [2] came out at 0.0004 µM.

As to `O=C(Nc1nc2ccccc2s1)c1cccc2c1CN(c1ccc(-c3cnn(Cc4ccccc4N4CCOCC4)c3)c(C(=O)O)n1)CC2` [Example 76, 6-[8-(1,3-benzothiazol-2-ylcarbamoyl)-3,4-dihydroisoquinolin-2(1H)-yl]-3-{1-[2-(morpholin-4-yl)benzyl]-1H-pyrazol-4-yl}pyridine-2-carboxylic acid], the EC50 in assay [1] (setting [3]) was above 1000 nM. The Ki in assay [2] was found to be 0.029 µM.

On to `Cc1c(-c2ccc(N3CCc4cccc(C(=O)Nc5nc6ccccc6s5)c4C3)nc2C(=O)O)cnn1CC1(N2CCOCC2)CCCC(C)(C)C1` (centres unmarked) [Example 145, 6-[8-(1,3-benzothiazol-2-ylcarbamoyl)-3,4-dihydroisoquinolin-2(1H)-yl]-3-(1-{[3,3-dimethyl-1-(morpholin-4-yl)cyclohexyl]methyl}-5-methyl-1H-pyrazol-4-yl)pyridine-2-carboxylic acid], for which the EC50 in assay [1] (setting [3]) worked out at 0.2 nM. For the same compound, the Ki in assay [2] is below 0.0001 µM.

For the compound `Cc1c(-c2ccc(N3CCc4cccc(C(=O)Nc5nc6ccccc6s5)c4C3)nc2C(=O)O)cccc1N(C)C(=O)C1(C)CCCCC1` [Example 179, 6-[8-(1,3-benzothiazol-2-ylcarbamoyl)-3,4-dihydroisoquinolin-2(1H)-yl]-3-(2-methyl-3-{methyl[(1-methylcyclohexyl)carbonyl]amino}phenyl)pyridine-2-carboxylic acid], the EC50 in assay [1] (Mus musculus, FL5.12, 24 h, read-out: FL5.12 Bcl-xL, - IL3, EC 50 (nM)) was found to be 6 nM. Moreover, the inhibitory constant (Ki) in assay [2] was below 0.0001 µM.

As for `Cc1cc(Oc2ccccc2)ccc1-c1ccc(N2CCc3cccc(C(=O)Nc4nc5ccccc5s4)c3C2)nc1C(=O)O` [Example 111, 6-[8-(1,3-benzothiazol-2-ylcarbamoyl)-3,4-dihydroisoquinolin-2(1H)-yl]-3-(2-methyl-4-phenoxyphenyl)pyridine-2-carboxylic acid], the EC50 in assay [1] (setting [3]) is above 1000 nM. Moreover, the inhibition constant (Ki) in assay [2] amounted to 0.021 µM.

On to `O=C(Nc1nc2ccccc2s1)c1cccc2c1CN(c1ccc(-c3cccc(Oc4ccccc4)c3)c(C(=O)O)n1)CC2` [Example 103, 6-[8-(1,3-benzothiazol-2-ylcarbamoyl)-3,4-dihydroisoquinolin-2(1H)-yl]-3-(3-phenoxyphenyl)pyridine-2-carboxylic acid], for which the EC50 in assay [1] (setting [4]) is above 1000 nM. Moreover, in assay [2], the Ki was 0.0006 µM.

For the compound `COC(=O)C(c1ccccc1)n1cc(-c2ccc(N3CCc4cccc(C(=O)Nc5nc6ccccc6s5)c4C3)nc2C(=O)O)cn1` (centres unmarked) [Example 95, 6-[8-(1,3-benzothiazol-2-ylcarbamoyl)-3,4-dihydroisoquinolin-2(1H)-yl]-3-[1-(2-methoxy-2-oxo-1-phenylethyl)-1H-pyrazol-4-yl]pyridine-2-carboxylic acid], the EC50 in assay [1] (setting [3]) was found to be 542 nM. Further, in assay [2], the Ki was 0.011 µM.

As to `O=C(Nc1nc2ccccc2s1)c1cccc2c1CN(c1ccc(-c3cnn(C(c4ccccc4)c4ccccc4)c3)c(C(=O)O)n1)CC2` [Example 75, 6-[8-(1,3-benzothiazol-2-ylcarbamoyl)-3,4-dihydroisoquinolin-2(1H)-yl]-3-[1-(diphenylmethyl)-1H-pyrazol-4-yl]pyridine-2-carboxylic acid], the EC50 in assay [1] (setting [3]) came to 919 nM. Besides, the Ki in assay [2] was 0.028 µM.

For the compound `Cc1c(-c2ccc(N3CCc4cccc(C(=O)Nc5nc6ccccc6s5)c4C3)nc2C(=O)O)cnn1C(CCN1CCOCC1)C1CCCCC1` (centres unmarked) [Example 152, 6-[8-(1,3-benzothiazol-2-ylcarbamoyl)-3,4-dihydroisoquinolin-2(1H)-yl]-3-{1-[1-cyclohexyl-3-(morpholin-4-yl)propyl]-5-methyl-1H-pyrazol-4-yl}pyridine-2-carboxylic acid], the EC50 in assay [1] (setting [3]) is 1 nM. Besides, the inhibition constant (Ki) in assay [2] is below 0.0001 µM.

As for `Cc1c(OC2CCCCC2)cccc1-c1ccc(N2CCc3cccc(C(=O)Nc4nc5ccccc5s4)c3C2)nc1C(=O)O` [Example 114, 6-[8-(1,3-benzothiazol-2-ylcarbamoyl)-3,4-dihydroisoquinolin-2(1H)-yl]-3-[3-(cyclohexyloxy)-2-methylphenyl]pyridine-2-carboxylic acid], the EC50 in assay [1] (setting [3]) came to 220 nM. Further, the Ki in assay [2] was 0.0002 µM.

For `CN(C)Cc1cccc(Cn2cc(-c3ccc(N4CCc5cccc(C(=O)Nc6nc7ccccc7s6)c5C4)nc3C(=O)O)cn2)c1` [Example 68, 6-[8-(1,3-benzothiazol-2-ylcarbamoyl)-3,4-dihydroisoquinolin-2(1H)-yl]-3-(1-{3-[(dimethylamino)methyl]benzyl}-1H-pyrazol-4-yl)pyridine-2-carboxylic acid], in assay [1] (setting [3]), the EC50 is above 1000 nM. Further, the Ki in assay [2] worked out at 0.279 µM.

`O=C(Nc1nc2ccccc2s1)c1cccc2c1CN(c1ccc(-c3cnn(CCc4ccccc4)c3)c(C(=O)O)n1)CC2` [Example 38, 6-[8-(1,3-benzothiazol-2-ylcarbamoyl)-3,4-dihydroisoquinolin-2(1H)-yl]-3-[1-(2-phenylethyl)-1H-pyrazol-4-yl]pyridine-2-carboxylic acid]: the EC50 in assay [1] (setting [4]) is above 1000 nM. In assay [2], the inhibitory constant (Ki) was 0.048 µM.

Turning to `Cc1c(-c2ccc(N3CCc4cccc(C(=O)Nc5nc6ccccc6s5)c4C3)nc2C(=O)O)ccnc1N(C)c1ccccc1` [Example 143, 6-[8-(1,3-benzothiazol-2-ylcarbamoyl)-3,4-dihydroisoquinolin-2(1H)-yl]-3'-methyl-2'-[methyl(phenyl)amino]-3,4'-bipyridine-2-carboxylic acid], the EC50 in assay [1] (setting [3]) was 19 nM. Besides, the Ki in assay [2] was below 0.0001 µM.

`COCCOC1(Cn2ncc(-c3ccc(N4CCc5cccc(C(=O)Nc6nc7ccccc7s6)c5C4)nc3C(=O)O)c2C)CCCCCC1` [Example 151, 6-[8-(1,3-benzothiazol-2-ylcarbamoyl)-3,4-dihydroisoquinolin-2(1H)-yl]-3-(1-{[1-(2-methoxyethoxy)cycloheptyl]methyl}-5-methyl-1H-pyrazol-4-yl)pyridine-2-carboxylic acid]: the EC50 in assay [1] (setting [3]) is 0.6 nM. In addition, the inhibitory constant (Ki) in assay [2] is below 0.0001 µM.
